According to ChEMBL document CHEMBL1201862, “PubChem BioAssay data set” (2004):
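Protocol summary: plate cells (96-well), add compound at 5 concentrations, incubate 48 h, interpolate endpoints linearly. Here, GI50 denotes the concentration required for 50% inhibition of growth.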 Active and inactive are the calls of the source. Rule as the data show it: active = GI50 up to about 1.1 µM and inactive = higher.

Tests used:
Test in all cases: NCI tumour cell line growth inhibition, 48 h
SK-MEL-28 = tested on: SK-MEL-28
HOP-92 = tested on: HOP-92
UACC-62 = tested on: UACC-62
Malme-3M = tested on: Malme-3M
NCI-H23 = tested on: NCI-H23
CCRF-CEM = tested on: CCRF-CEM
MDA-MB-435 = tested on: MDA-MB-435
SNB-75 = tested on: SNB-75
IGROV-1 = tested on: IGROV-1
BT-549 = tested on: BT-549
OVCAR-5 = tested on: OVCAR-5
RPMI-8226 = tested on: RPMI-8226
HCT-116 = tested on: HCT-116
HL-60 = tested on: HL-60
UO-31 = tested on: UO-31
OVCAR-8 = tested on: OVCAR-8
SF-539 = tested on: SF-539

Measured: GI50

Nc1ccccc1.O=P(O)(OP(=O)(O)c1ccccc1)c1ccccc1
inactive: SK-MEL-28 > 100 µM | HOP-92 > 100 µM | UACC-62 > 100 µM | Malme-3M > 100 µM | NCI-H23 > 100 µM | CCRF-CEM > 100 µM | MDA-MB-435 > 100 µM | SNB-75 > 100 µM | IGROV-1 > 100 µM | BT-549 > 100 µM | OVCAR-5 > 100 µM | RPMI-8226 > 100 µM | HCT-116 > 100 µM | HL-60 65.3 µM | UO-31 > 100 µM | OVCAR-8 > 100 µM

COC(=O)CCC1(O)C=CC(=O)C=C1
inactive: SF-539 25.8 µM | SK-MEL-28 23.2 µM | HOP-92 65.6 µM | UACC-62 20.3 µM | Malme-3M 17 µM | NCI-H23 33.7 µM | CCRF-CEM 43.4 µM | MDA-MB-435 > 100 µM | SNB-75 > 100 µM | IGROV-1 20.6 µM | BT-549 58.5 µM | OVCAR-5 > 100 µM | RPMI-8226 31.7 µM | HCT-116 34 µM | UO-31 55 µM | OVCAR-8 31.7 µM

CCOC(=O)NC(C(F)(F)F)(C(F)(F)F)P(=O)(OCC)OCC
inactive: SK-MEL-28 43.4 µM | HOP-92 81.7 µM | UACC-62 28 µM | Malme-3M 28.3 µM | NCI-H23 34.5 µM | CCRF-CEM 2.71 µM | MDA-MB-435 44.1 µM | SNB-75 19.9 µM | IGROV-1 40.6 µM | BT-549 34 µM | OVCAR-5 57.1 µM | RPMI-8226 24 µM | HCT-116 31 µM | HL-60 65.2 µM | UO-31 24.3 µM | OVCAR-8 36.6 µM

CCC(=O)C(C(C)/C=C/CCSc1ccccc1)C(O)CCCCCC(=O)OC (stereo not given)
inactive: SF-539 > 100 µM | SK-MEL-28 > 100 µM | HOP-92 13.7 µM | UACC-62 71.9 µM | Malme-3M > 100 µM | NCI-H23 77.3 µM | CCRF-CEM 38.6 µM | MDA-MB-435 > 100 µM | SNB-75 > 100 µM | IGROV-1 > 100 µM | BT-549 > 100 µM | OVCAR-5 > 100 µM | RPMI-8226 > 100 µM | HCT-116 > 100 µM | UO-31 > 100 µM | OVCAR-8 > 100 µM

N=C(N)C1CN(CC=O)C(=O)NC1=O (stereo not given)
inactive: SK-MEL-28 > 100 µM | HOP-92 > 100 µM | UACC-62 > 100 µM | Malme-3M > 100 µM | NCI-H23 > 100 µM | CCRF-CEM > 100 µM | MDA-MB-435 > 100 µM | SNB-75 > 100 µM | IGROV-1 > 100 µM | BT-549 > 100 µM | OVCAR-5 > 100 µM | RPMI-8226 > 100 µM | HCT-116 > 100 µM | HL-60 > 100 µM | UO-31 > 100 µM | OVCAR-8 > 100 µM
